Test: skin sensitization test (LLNA, Local Lymph Node Assay, OECD test guideline 429), Stimulation Index
Format: in vivo
Settings: SI less than 3 judged negative
From the text: As described in literatures (for example, “Functional Material” (Kino Zairyou) 2005, September, Vol. 25, No. 9, p. 55), the compound having a Stimulation Index (SI value) of less than 3, where the Stimulation Index indicates the extent of skin sensitization, is judged as being negative for skin sensitization. […] The lower SI value means lower skin sensitization. […] The SI value of the monomer or the oligomer used is preferably 2 or lower, more preferably 1.6 or lower.
The description “negative” or “none” is equivalent to the SI value of less than 3.

| Molecule | SI value (Stimulation Index) |
| --- | --- |
| C=C(C)C(=O)OCC(C)(C)COC(=O)C(=C)C [Example A1, Neopentyl glycol dimethacrylate] | 2.0 |
| C=C(C)C(=O)OCC(CC)(COC(=O)C(=C)C)COC(=O)C(=C)C [Example A5, Trimethylolpropane trimethacrylate] | 1.9 |
| C=CC(=O)OCCCCCCCCCCCCCCCCCC [Example A12, Stearyl acrylate] | 2.7 |
| C=C(C)C(=O)OCCCCOC(=O)C(=C)C [Example A13, 1,4-Butanediol dimethacrylate] | 2.6 |
| C=CC(=O)OCCCCCCCCCCCCCCCC(C)C [Example A19, Isostearyl acrylate] | 1.4 |
| C=C(C)C(=O)OCCCCCCCCCCCCCCCCCC [Example A21, Stearyl methacrylate] | 1.2 |
| Polyethoxylated tetramethylolmethane tetraacrylate [Example A9] | 1.7 |
| Polyethylene glycol dimethacrylate represented by General Formula (1) (n is nearly equal to 2) [Example A23] | 1.1 |
| Polyethylene glycol dimethacrylate represented by General Formula (1) (n is nearly equal to 14) [Example A3] | 1.6 |
| Polyethylene glycol dimethacrylate represented by the following General Formula (1) (n is nearly equal to 9) [Example A2] | 1.3 |
| Polypropylene glycol diacrylate [Example A14, Polypropylene glycol diacrylate [CH2═CH—CO—(OC3H6)n—OCOCH═CH2 (n is nearly equal to 12)]] | 1.5 |
| Tricyclodecanedimethanol dimethacrylate [Example A6] | 1.3 |
| γ-Butyrolactone methacrylate [Example A4] | 2.1 |

Test: not given
Settings: MSDS; equivalent to SI value of less than 3; cited from earlier work

| Molecule | skin sensitization evaluated in MSDS |
| --- | --- |
| Caprolactone-modified dipentaerythritol hexaacrylate [Example A7] | negative |

Same assay, conditions: literature; equivalent to SI value of less than 3; cited from earlier work

| Molecule | skin sensitization evaluated in literature |
| --- | --- |
| C=C(C)C(=O)OC(C)(C)C [Example A15, t-Butyl methacrylate] | negative |
| C=C(C)C(=O)OCCCCC [Example A16, n-Pentyl methacrylate] | negative |
| C=C(C)C(=O)OCCCCCC [Example A17, n-Hexyl methacrylate] | negative |
